Assays:
[1] = species: Mus musculus; assay: Effective dose required for antinociceptive activity in mouse; assay type: functional
[2] = biological target: T1, Opioid receptor (Rattus norvegicus, UniProt P33533+P34975+P33535); assay type: tissue-based, Brain
Description: Concentration that produces 50% inhibition of stereospecific [3H]naloxone binding to opioid receptors in rat brain in presence of sodium.

[3] = biological target: T1, Opioid receptor; assay type: tissue-based, Brain; remark: listed apart in the source
Description: Concentration that produces 50% inhibition of stereospecific [3H]naloxone binding to opioid receptors in rat brain in absence of sodium.

Row | Structure (SMILES) | ED50 [1] [µg] | IC50 [2] [µM] | IC50 [3] [µM]
1 | CN1CC[C@]23c4c5ccc(O)c4O[C@H]2[C@@H](O)C=C[C@H]3[C@H]1C5.CN1CC[C@]23c4c5ccc(O)c4O[C@H]2[C@@H](O)C=C[C@H]3[C@H]1C5.O=S(=O)(O)O | 0.0794 |  | 
2 | COc1ccc2c(c1)C1CCC3CCC14C3CCN(C)C4C2.Cl (stereo not given) | 5.42 |  | 
3 | CN1CCC2C3CCC4c5cc(O)ccc5CC1C42CC3.Cl (stereo not given) | 4.07 | 5.59 | 0.472
